Drawing on patent US20190350964A1, “ANTI-CANCER COMPOUNDS AND USES THEREOF” (NATIONAL UNIVERSITY OF SINGAPORE, priority 2016, published 2019), this text covers GI50 for one compound.

Holding throughout (test): MTT cytotoxicity test (GI50)
What all share (assay type): cell-based

The test system of assay [1] is NCC19. The settings on record: Homo sapiens; NCC19, cancer, gastric; MTT 72 h.
In assay [2] the test system is IMR90. The settings on record: Homo sapiens, IMR-90; IMR90, normal, lung; MTT 72 h.
Assay [3] concerns NCC59. The settings on record: Homo sapiens; NCC59, cancer, gastric; MTT 72 h.

On to `N#C/C(=C\c1cccc2cnccc12)c1c[nH]c2ccccc12` [a131, (Z)-2-(1H-indol-3-yl)-3-(5-isoquinolyl)prop-2-enenitrile], for which the figures for the GI50 in assay [1], in assay [2] and in assay [3] were 4.6 µM, 5.8 µM and 0.9 µM, respectively.
